Molecules are shown by their SMILES. Read-outs that look alike come from different tables or passages of the source. Bounds are passed on as bounds.

We go through 5 molecules from US10533015B1, “Opioid receptor antagonist prodrugs” (Nirsum Laboratories, Inc., priority 2019, dated 2020).

A short description of data set [1]: Plasma stability assay, human plasma. It is filed as in vitro ADME. The following applies: 2 μM, 37° C. As to the method: (§1) Plasma stability determination of the test compounds in rat, dog, cynomolgus monkey and human plasma is performed using HPLC-MS. For rat, incubations are carried out in 96-well polypropylene plates in 5 aliquots of 70 μL each (one for each time point). […] Five time points are analyzed (0, 15, 120, 480 and 1440 min). […] All incubations are performed in duplicates. The samples are analyzed by HPLC-MS. The percentage of parent compound remaining after incubation in plasma is determined.

The nature of data set [2]: Liver S9 fraction stability, human. The class given is in vitro ADME. The following applies: human liver S9, 1.0 mg/ml S9 protein, 2 μM, 37° C. As to the method: (§2) Liver S9 fraction stability determination of the test compounds in dog, cynomolgus monkey and human is performed using HPLC-MS. Test compound (2 μM, 0.1% DMSO, 1% Methanol final concentration) was assessed for stability in a 50 μl phosphate buffer containing 1.0 mg/ml S9 protein from each of the three species and 5 mM D-saccharic acid-1, 4-lactone. Samples were incubated at 37° C. for 60 minutes and the % compound remaining was assessed.

The nature of data set [3]: Liver S9 fraction stability, monkey. It is filed as in vitro ADME, cynomolgus monkey. The note with it: monkey liver S9, 1.0 mg/ml S9 protein, 2 μM, 37° C. The method, then: as §2
Data set [4] in a line: Plasma stability assay, rat plasma. The following applies: 10 μM, 37° C. The class given is in vitro ADME. The essentials:
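Duplicate incubations; HPLC-MS quantitation of remaining parent (%). Rat plasma: 0/15/120/480/1440 min. Dog, cyno, human plasma: 2 μM cpd, 1% solvent, 37 °C, 0/10/30/60/120 min.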

Data set [5] can be described thus: Plasma stability assay, dog plasma. The class given is in vitro ADME. The following applies: 2 μM, 37° C. As to the method: as §1
A short description of data set [6]: Plasma stability assay, monkey plasma. It is filed as in vitro ADME, cynomolgus monkey. The following applies: 2 μM, 37° C. As to the method: as §1
Data set [7] is described as follows: Liver S9 fraction stability, dog. The note with it: dog liver S9, 1.0 mg/ml S9 protein, 2 μM, 37° C. It is filed as in vitro ADME. As to the method: as §2
The target in data set [8] is T1, DOR (Homo sapiens, UniProt P41143).
T1 construct: expressed in transfected cells
Description: Opioid receptor binding assay, DOR ([3H]-DADLE). The note with it: MaxDose 10000 nM. The method, then: Receptor binding assays were performed to assess the ability of compounds to inhibit binding to radiolabeled ligand.
The stable cell lines were established and prepared cell membrane obtained using these cell lines.
3) Assay Procedure 1) Transfer 1 μl of specified concentration compound to assay plate according to the plate map for nonspecific binding. Transfer 1 μl of DMSO to assay plate according to plate map for total binding. 2) Follow the plate map. Dispense 99 μl of membrane stocks into the plate. 3) Add 100 μl of radio ligand. 4) Seal the plates. Incubate at RT for 1 hour. 5) Soak the Unifilter-96 GF/C filter plates with 50 μl of 0.3% PEI per well for at least 0.5 hour at room temperature. 6) When binding assays are completed, filter the reaction mixture through GF/C plates using Perkin Elmer Filtermate Harvester, and then wash each plate for 4 times with cold wash buffer. 7) Dry the filter plates for 1 hour at 50 degrees. 8) After drying, seal the bottom of the filter plate wells using Perkin Elmer Unifilter-96 backing seal tape. Add 50 μl of Perkin Elmer Microscint 20 cocktail. Seal top of filter plates with Perkin Elmer TopSeal-A sealing film. 9) Count ^3H trapped on filter using Perkin Elmer MicroBeta2 Reader second day. 10) Analyze the data with GraphPad Prism 5. Calculate the “Inhibition [% Control]” using the equation: % Inh=(1-Background subtracted Assay value/Background subtracted HC value)*100. Results

Setting [9] is: heating temp. 40 °C, obs. temp. 40 °C.
Where [10] appears, read: heating temp. 60 °C, obs. temp. 25 °C.

T1 sequence (P41143 whole entry): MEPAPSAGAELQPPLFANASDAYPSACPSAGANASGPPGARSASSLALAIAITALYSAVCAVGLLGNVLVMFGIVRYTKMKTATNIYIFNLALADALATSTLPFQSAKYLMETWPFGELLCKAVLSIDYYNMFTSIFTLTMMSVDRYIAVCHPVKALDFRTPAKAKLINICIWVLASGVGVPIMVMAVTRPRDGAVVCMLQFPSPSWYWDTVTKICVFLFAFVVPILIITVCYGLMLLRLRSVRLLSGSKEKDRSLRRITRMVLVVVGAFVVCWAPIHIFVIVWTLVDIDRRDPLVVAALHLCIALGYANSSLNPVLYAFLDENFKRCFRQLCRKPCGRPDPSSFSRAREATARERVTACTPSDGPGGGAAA

On to `CCCCCCCCCCCC(=O)OCN1C(=O)CCc2ccc(OCCCCN3CCN(c4cccc(Cl)c4Cl)CC3)cc21` [Aripiprazole Lauroxil, reference compound], for which the “% remaining at time point” value in [1] (0 min) stood at 100%; in data set [1] (15 min (head)), 99.7%; in [1] (120 min (head)) it was 80%; in [1] (480 min (head)), 73.2%; in data set [1] (1440 min (head)) it was 75.5%; in [4] (0 min), 100%. In addition, the “% remaining at time point” value worked out at 84% in [4] (15 min); 85.5% in data set [4] (120 min); 76.4% in [4] (480 min); 46% in [4] (1440 min); 100% in data set [5] (0 min); 103% in data set [5] (15 min (head)). Moreover, the “% remaining at time point” value was determined as 81.3% in data set [5] (120 min (head)); 78.6% in data set [5] (480 min (head)); 74.3% in data set [5] (1440 min (head)); 100% in data set [6] (0 min); 95.2% in [6] (15 min (head)); 94.5% in data set [6] (120 min (head)). For the same molecule, the “% remaining at time point” value came to 75.5% in data set [6] (480 min (head)) and 83.2% in data set [6] (1440 min (head)). Further, the “% remaining at 60 minutes” value amounted to 47.8% in [2], 56.6% in data set [3] and 66.1% in data set [7].
For the molecule `C=C1CC[C@@]2(O)C3Cc4ccc(OC(=O)CCCCCCC/C=C/CCCCCCCC)c5c4[C@@]2(CCN3CC2CC2)[C@H]1O5` [Compound 15, (4aS,7aS,12bS)-3-(cyclopropylmethyl)-4a-hydroxy-7-methylene-2,3,4,4a,5,6,7,7a-octahydro-1H-4,12-methanobenzofuro[3,2-e]isoquinolin-9-yl (E)-octadec-9-enoate], the “% remaining at time point” value is given as 100% in data set [1] (0 min); 83.3% in data set [1] (15 min (head)); 82.5% in [1] (120 min (head)); 107.1% in data set [1] (480 min (head)); 109.0% in [1] (1440 min (head)); 100% in data set [4] (0 min). Besides, the “% remaining at time point” value in data set [4] (15 min) is 72%; in [4] (120 min), 69.3%; in [4] (480 min), 52%; in [4] (1440 min), 35%; in data set [5] (0 min) it was 100%; in data set [5] (15 min (head)), 82.5%. For the same molecule, the “% remaining at time point” value turned out to be 80.6% in data set [5] (120 min (head)); 90.1% in data set [5] (480 min (head)); 86.1% in data set [5] (1440 min (head)); 100% in [6] (0 min); 74.5% in data set [6] (15 min (head)); 72.7% in [6] (120 min (head)). Further, the “% remaining at time point” value came to 80.6% in [6] (480 min (head)) and 76.5% in [6] (1440 min (head)). Further, the results for the “% remaining at 60 minutes” value in data set [2], in [3] and in [7] were 59.8%, 76.7% and 80.9%, respectively. In addition, the “Approximate Solubility (mg/mL) in Excipient: Cottonseed oil” value (shortened to “Approximate Solubility … Cottonseed oil”) is, setting by setting: under setting [9], less than 51 mg/mL; under setting [10], more than 402.6 mg/mL; (heating temp. 60 °C, obs. temp. 40 °C) more than 401 mg/mL. Also, the “Approximate Solubility (mg/mL) in Excipient: Ethanol” value (Ethanol, heating temp. 40 °C, obs. temp. 40 °C) is listed as less than 20 mg/mL. The “Approximate Solubility (mg/mL) in Excipient: Sesame oil” value (“Approximate Solubility … Sesame oil” for short) reads like this: under setting [9], less than 52 mg/mL; under setting [10], more than 396.5 mg/mL. Besides, the “Equilibrium solubility (mg/mL) Water” value under setting [9] is less than 0.0002 mg/mL.
Regarding `C=C1CC[C@@]2(O)C3Cc4ccc(OCOC(=O)OCCCCCCCCCCCC)c5c4[C@@]2(CCN3CC2CC2)[C@H]1O5` [Compound 24, (((4aS,7aS,12bS)-3-(cyclopropylmethyl)-4a-hydroxy-7-methylene-2,3,4,4a,5,6,7,7a-octahydro-1H-4,12-methanobenzofuro[3,2-e]isoquinolin-9-yl)oxy)methyl dodecyl carbonate], the “% remaining at time point” value in data set [1] (0 min) was 100%; in data set [1] (15 min (head)) it was 94%; in data set [1] (120 min (head)) it was 102.3%; in [1] (480 min (head)), 105.3%; in data set [1] (1440 min (head)) it was 112.5%; in [4] (0 min), 100%. Also, the “% remaining at time point” value was determined as 32% in data set [4] (15 min); 11.8% in [4] (120 min); 8.2% in [4] (480 min); 3% in data set [4] (1440 min); 100% in data set [5] (0 min); 94.7% in data set [5] (15 min (head)). Further, the “% remaining at time point” value in data set [5] (120 min (head)) was 104.5%; in [5] (480 min (head)), 115.7%; in data set [5] (1440 min (head)) it was 116.2%; in [6] (0 min), 100%; in data set [6] (15 min (head)) it was 90.7%; in data set [6] (120 min (head)), 93.5%. Besides, the “% remaining at time point” value in data set [6] (480 min (head)) is given as 96.2%; in data set [6] (1440 min (head)) it was 97.8%. Also, the “% remaining at 60 minutes” value in data set [2] came to 3.5%; in [3], 3%; in [7] it was 3.6%. Besides, the “Approximate Solubility … Cottonseed oil” value under setting [10] was more than 403 mg/mL. Further, under setting [10], the “Approximate Solubility … Sesame oil” value was in the range of 338 to 368 mg/mL. Also, the “Equilibrium solubility (mg/mL) Water” value under setting [9] was less than 0.001 mg/mL.
On to `C=C1CC[C@@]2(O)C3Cc4ccc(OC(=O)OCCCCCCCCCCCCCCC)c5c4[C@@]2(CCN3CC2CC2)[C@H]1O5` [Compound 32, (4aS,7aS,12bS)-3-(cyclopropylmethyl)-4a-hydroxy-7-methylene-2,3,4,4a,5,6,7,7a-octahydro-1H-4,12-methanobenzofuro[3,2-e]isoquinolin-9-yl pentadecyl carbonate], for which, under setting [10], the “Approximate Solubility … Cottonseed oil” value is more than 395.8 mg/mL and the “Approximate Solubility … Sesame oil” value is more than 410 mg/mL. Besides, the “% Inh@MaxDose” value in data set [8] is recorded as 43.2%.
Take `CCCCCCCCCCCCCCCC(=O)OC1CCCn2c1nc(C)c(CCN1CCC(c3noc4cc(F)ccc34)CC1)c2=O` (stereo not shown) [Paliperidone palmitate, reference compound]: the “% remaining at time point” value in data set [1] (0 min) is 100%; in data set [1] (15 min (head)), 103.7%; in data set [1] (120 min (head)) it was 97.6%; in [1] (480 min (head)) it was 109.1%; in data set [1] (1440 min (head)), 104.1%; in [5] (0 min), 100%. Also, the “% remaining at time point” value in data set [5] (15 min (head)) was found to be 91.2%; in data set [5] (120 min (head)), 88.4%; in data set [5] (480 min (head)), 95.9%; in [5] (1440 min (head)), 93.1%; in data set [6] (0 min) it was 100%; in [6] (15 min (head)), 92%. The results for the “% remaining at time point” value in data set [6] (120 min (head)), in data set [6] (480 min (head)) and in data set [6] (1440 min (head)) were 89.5%, 98.4% and 92.5%, respectively. Also, the “% remaining at 60 minutes” value is 47.8% in [2], 57.4% in [3] and 56.4% in [7].
